US8715927B2, “Inhibition of DNA polymerases to augment chemotherapeutic and antimicrobial agents” (priority 2008, dated 2014)

Tests used:
avidin = avidin (Gallus gallus, UniProt P02701); conditions: non-covalent interaction; cited from earlier work
COS-7 cells = test: Mutagenesis assay: site-specifically modified pMS2 shuttle vector replicated in COS-7 cells; type: cell-based; conditions: for Deletions / Single base substitutions G to A / Single base substitutions G to C / Single base substitutions G to T: number among colonies scored, pMS2 vector, COS-7 cells; for Frequency of mutations: pMS2 vector replicated in COS-7 cells
Description: Mutagenesis assays were performed using a previously developed pMS2 shuttle vector/COS-7 system (Moriya, Proc. Natl. Acad. Sci. U.S.A. 90:1122-1126, 1993). In its single-stranded form, the pMS2 vector contains a hairpin loop with an internal EcoRV restriction site. Incorporation of control non-damaged oligodeoxynucleotides into this site was accomplished in the presence of a scaffold DNA according to a published method (Kanuri et al., J. Biol. Chem. 277:18257-18265, 2002). To create a single-stranded pMS2 containing site-specific interstrand crosslink, the procedure was modified as described below.
Oligodeoxynucleotides containing a model acrolein-derived site-specific interstrand crosslink (FIG. 1A and FIG. 1B) were designed in such a way that peripheral regions of the longer strands (36-mer) were complementary to the vector sequences immediately adjacent to the EcoRV site. A circular single-stranded pMS2 vector (approximately 15 pmol) was digested with 40 units of EcoRV (New England BioLabs) for 3 hours at 37° C. to generate a linear DNA. 5′-phosphorylated crosslinked inserts (60 pmol) were added to the linear single-stranded pMS2 (15 pmol), and ligated using 60 units of T4 DNA ligase (New England BioLabs) for 48 hours at 4° C. To obtain double-stranded pMS2 vectors, the 36-mer strand of the crosslink or the scaffold oligodeoxynucleotide in control DNA was extended using 5 units of T4 DNA polymerase (New England BioLabs) and 1 mM dNTPs at 37° C. for 1 hour. A newly-synthesized strand was concomitantly sealed using 5 units of T4 DNA ligase (New England BioLabs). The creation of double-stranded pMS2 was verified by PstI (New England BioLabs) digestion.
Transfection of pMS2 vector into COS-7 cells, isolation of progeny DNA, selection of individual clones by E. coli transformation, and differential hybridization analyses were performed as previously described (Moriya, Proc. Natl. Acad. Sci. U.S.A. 90:1122-1126, 1993; Kanuri et al., J. Biol. Chem. 277:18257-18265, 2002).
Previous studies have established that in human cells, crotonaldehyde-mediated N^2-N^2-guanine ICLs were repaired mostly (>94%) in an error-free manner (Liu et al., Biochemistry 45:12898-12905, 2006). Since acrolein-mediated ICLs are structurally similar to crotonaldehyde-mediated ICLs, it is possible that model acrolein-derived N^2-N^2-guanine ICL (FIG. 1A) would not be highly mutagenic when plasmid vectors containing this lesion were replicated in mammalian cells. In order to test this, oligodeoxynucleotides were constructed to contain a site-specific ICL in either CpG or GpC sequence contexts (FIG. 1B) and engineered into a double-stranded DNA shuttle vector (pMS2). The vector was replicated in COS-7 cells, and progeny DNAs were analyzed to determine frequency and types of mutations. In both the CpG and GpC sequence contexts, the mutation frequencies were very low, 3.0% and 3.2%, respectively (Table 2).

E. coli DNA pol IV = E. coli DNA pol IV (Escherichia coli, UniProt Q47155); conditions: −10 primer, 30-minute reactions, 37° C.
Description: The primer extension assays were conducted in a 10 μl reaction volume containing pol II or pol IV, 5 nM primer-template, 5 mM MgCl2, 100 μM dNTPs, 25 mM Tris-HCl (pH 7.5), 25 mM DTT, 0.5 mg/ml BSA and 10% glycerol. Reactions were carried out at 37° C. for 30 minutes followed by termination of the reaction with a solution containing 95% formamide, 10 mM EDTA and 0.03% (w/v) xylene cyanol and 0.03% (w/v) bromophenol blue. DNA replication products were separated through a 15% denaturing polyacrylamide gel at 2000 V and later analyzed on a Phosphor Imager (GE Healthcare).

E. coli DNA pol II = biological target: T1, E. coli DNA pol II (Escherichia coli, UniProt P21189); test: Primer extension assay by E. coli DNA pol II; type: biochemical; conditions: pol II 0.3 nM, time course
T1 construct: made in house
Description: Control, non-damaged and ICL-containing DNA substrates were used to analyze replication from a −10 primer by pol II (FIG. 7A) and pol IV (FIGS. 7B and 7C). Using the non-damaged primer-template substrates pol II catalyzed a highly processive polymerization to yield full-length primer extension products. […] ICL bypass by pol II was not observed even when reactions were conducted with increased enzyme concentrations (up to a 1000-fold excess relative to DNA substrate).

Chain of E. coli DNA pol IV (Q47155 whole entry): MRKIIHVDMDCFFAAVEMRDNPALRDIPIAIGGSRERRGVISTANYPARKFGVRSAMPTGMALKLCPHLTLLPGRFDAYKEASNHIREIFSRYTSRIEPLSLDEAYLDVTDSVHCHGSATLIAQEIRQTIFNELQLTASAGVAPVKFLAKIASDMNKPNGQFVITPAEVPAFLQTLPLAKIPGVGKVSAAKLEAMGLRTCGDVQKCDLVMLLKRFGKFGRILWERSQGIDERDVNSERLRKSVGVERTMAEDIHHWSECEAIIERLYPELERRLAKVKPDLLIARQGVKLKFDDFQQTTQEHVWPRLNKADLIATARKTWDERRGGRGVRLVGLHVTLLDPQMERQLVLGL
Chain of avidin (P02701 25-152, species assumed): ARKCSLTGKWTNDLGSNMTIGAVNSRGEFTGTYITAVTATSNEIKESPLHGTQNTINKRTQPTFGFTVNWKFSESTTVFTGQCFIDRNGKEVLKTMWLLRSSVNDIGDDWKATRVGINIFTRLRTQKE
T1 sequence (P21189 whole entry): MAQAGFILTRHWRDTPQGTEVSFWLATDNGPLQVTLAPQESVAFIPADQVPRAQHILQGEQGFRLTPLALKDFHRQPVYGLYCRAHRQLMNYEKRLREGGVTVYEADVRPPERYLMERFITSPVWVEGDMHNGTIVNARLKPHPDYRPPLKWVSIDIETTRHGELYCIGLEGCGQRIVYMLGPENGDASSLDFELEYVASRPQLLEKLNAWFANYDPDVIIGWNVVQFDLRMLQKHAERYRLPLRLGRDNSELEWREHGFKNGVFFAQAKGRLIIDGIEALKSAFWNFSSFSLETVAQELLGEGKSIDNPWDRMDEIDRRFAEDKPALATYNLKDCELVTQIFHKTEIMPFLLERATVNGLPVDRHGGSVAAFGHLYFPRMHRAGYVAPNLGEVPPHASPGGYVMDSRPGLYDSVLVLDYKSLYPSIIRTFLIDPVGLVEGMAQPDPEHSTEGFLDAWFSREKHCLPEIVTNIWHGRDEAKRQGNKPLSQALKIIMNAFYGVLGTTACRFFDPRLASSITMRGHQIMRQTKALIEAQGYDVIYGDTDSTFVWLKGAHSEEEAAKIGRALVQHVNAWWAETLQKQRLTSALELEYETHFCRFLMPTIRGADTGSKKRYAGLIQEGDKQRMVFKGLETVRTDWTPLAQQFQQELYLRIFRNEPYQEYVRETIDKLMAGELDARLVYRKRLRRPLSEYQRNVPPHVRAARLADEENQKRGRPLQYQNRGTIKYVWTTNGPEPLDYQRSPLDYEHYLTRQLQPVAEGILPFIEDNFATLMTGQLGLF

Compound | Ka of avidin-biotin complex (avidin) | Deletions (COS-7 cells) | Single base substitutions G to A (COS-7 cells) | Single base substitutions G to C (COS-7 cells) | Single base substitutions G to T (COS-7 cells) | Frequency of mutations (COS-7 cells) [%] | replication by increasing concentrations of pol IV (E. coli DNA pol IV) | replication from −10 primer by pol II (E. coli DNA pol II)
O=C(O)CCCC[C@@H]1SC[C@@H]2NC(=O)N[C@@H]21 [biotin] | 10^15 M^−1 | – | – | – | – | – | – | –
CpG ICL: SEQ ID NO: 1 and 2 joined by G-(CH2)3-G; model acrolein-derived N2-N2-guanine ICL in CpG context (chain 1 GCTAGCGAGTCC; chain 2 CCTGCAAGCGATGGACTCGCTAGCATCGCTGGTACC; listed as DNA, chemistry not fully specified) | – | 0 | 0 | 0 | 2 | 3.0 | – | –
GpC ICL: SEQ ID NO: 3 and 4 joined by G-(CH2)3-G; model acrolein-derived N2-N2-guanine ICL in GpC context (chain 1 GCTGAGCGATCC; chain 2 CCTGCAAGCGATGGATCGCTCAGCATCGCTGGTACC; listed as DNA, chemistry not fully specified) | – | 5 | 4 | 1 | 1 | 3.2 | – | –
ICL1: crosslinked oligodeoxynucleotide, SEQ ID NO: 5 and 6 joined by G-(CH2)3-G; models DNA product of dual incision around the ICL (chain 1 GATGCTANCYTGTC; chain 2 AGCGATAGACACYATAGCATCGCTGGTACCGACTCG; crosslinked oligodeoxynucleotide, G-(CH2)3-G interstrand crosslink, further chemistry not given here) | – | – | – | – | – | – | very poor strand displacement synthesis | unable to carry out effective strand-displacement synthesis
